# Measured values from ChEMBL document CHEMBL5543108, “Structure-based design and synthesis of BML284 derivatives: A novel class of colchicine-site noncovalent tubulin degradation agents” (Eur J Med Chem, 2024).
# Columns and labels:
# [1] = Selectivity ratio of IC50 for paclitaxel resistant human A549/Taxol cells to IC50 for human A549
# [2] = tested on: A2780S; assay: Induction of cell cycle arrest in human A2780S cells assessed as accumulation of cells at G2/M phase at 3 nM measured after 24 hrs by propidium iodide staining based analysis (reference value: 18.43%); assay type: functional
# [3] = tested on: A2780/Taxol; assay: Induction of cell cycle arrest in human A2780T cells assessed as accumulation of cells at G0/G1 phase at 30 nM measured after 24 hrs by propidium iodide staining based analysis (reference value: 46.141%); assay type: functional
# [4] = tested on: A2780/Taxol; assay: Induction of cell cycle arrest in human A2780T cells assessed as accumulation of cells at G0/G1 phase at 100 nM measured after 24 hrs by propidium iodide staining based analysis (reference value: 46.141%); assay type: functional
# [5] = tested on: A2780S; assay: Induction of apoptosis in human A2780S cells assessed as total number of late apoptotic cells at 30 nM measured after 48 hrs by Annexin-V-FITC and PI staining based flow cytometry analysis (reference value: 3.42%); assay type: functional
# [6] = Half life in male Sprague-Dawley rat at 10 mg/kg, iv; assay type: ADME, organism-based; conditions: in vivo
smiles,measurement,setting,value
COc1cccc(-c2cc(NCc3ccc4[nH]ccc4c3)nc(N)n2)c1,Ratio IC50,[1],1.1
same,Activity,[2],23.17%
same,Activity,[3],44.27%
same,Activity,[4],7.72%
same,Activity,[5],5.29%
same,half-life,[6],116 min
